Measurements: patent US20240058450A1, “BCL-XL Inhibitory Compounds Having Low Cell Permeability and Antibody Drug Conjugates Including the Same” (AbbVie Inc., priority 2014, published 2024)
Read-outs that look alike come from different tables or passages of the source.

How the values were obtained:
[1] = test system: Molt-4 human acute lymphoblastic leukemia cells; assay: Molt-4 cell viability assay (CellTiter-Glo, 48 hours, 10% HS); format: cell-based; conditions: non-permeabilized cells
Procedure, shortened: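 Cells were seeded at 12,500 per well in medium with 10% human serum and exposed to a 3-fold compound dilution series from 10 μM to 0.0005 μM. After 48 h, viable cells were quantified by CellTiter-Glo luminescence. Each concentration was run in duplicate on at least 3 occasions.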

[2] = test system: permeabilized Molt-4 cells; assay: JC-1 percent depolarization assay in digitonin permeabilized Molt-4 cells; format: cell-based; conditions: Homo sapiens
Description: In addition to cytochrome c release, mitochondria undergoing apoptosis frequently lose their transmembrane mitochondrial membrane potential (Bouchier-Hayes et al., 2008, Methods 44(3): 222-228). JC-1 is a cationic carbocyanine dye that accumulates in mitochondria and fluoresces red when mitochondria are healthy and is lost when the mitochondrial membrane is compromised (percentage depolarization; Smiley et al., 1991, Proc. Natl. Acad. Sci. USA, 88: 3671-3675; Reers et al., 1991: Biochemistry, 30: 4480-4486). This loss in signal can be detected in permeabilized cells using a fluorimeter (excitation 545 nm and emission of 590 nm) and is therefore fully quantitative, enhancing both reproducibility and throughput. Specifically, digitonin permeabilized molt-4 cells (75,000/well) were treated with Bcl-xL inhibitors (1000 nM-0.00 nM) for up to 180 minutes at 32° C., with fluorescence determined every 10 minutes. At the maximal signal, the percentage depolarization can be determined for each time concentration of Bcl-xL inhibitors according to the formula:
% Depolarization=1−[(Sample−FCCP)/(DMSO−FCCP)]
DMSO and FCCP (10 μM) are used as negative and positive controls respectively (Ryan & Letai, 2013, Methods 61(2): 156-164). EC50 values were subsequently determined from the resulting concentration-response curves. Good alignment was observed when the ability of Bcl-xL inhibitors to induce cytochrome c release was compared to loss in JC-1 fluorescence in permeabilized Molt-4 cells.

[3] = target: Bcl-xL (Homo sapiens, UniProt Q07817); assay: Time Resolved-Fluorescence Resonance Energy Transfer (TR-FRET) binding assay, competition with probe F-Bak
Procedure, shortened: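 TR-FRET binding assay run at room temperature for 2 h after mixing compound with Bcl-xL protein, F-Bak probe and Tb-labelled antibody. Test compounds diluted from a 2× 50 μM stock. Ki values derived via Wang's equation from 520/495 nm emission under 340 nm excitation, in the absence of serum or with 1% HS.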

[4] = test system: permeabilized Bcl-xL dependent Molt-4 cells; assay: Cytochrome C release in selectively (digitonin) permeabilized Molt-4 cells; format: cell-based, human; conditions: 4 h treatment, read-out: Molt-4 Permeabilized Cyt C Release
Description: The permeabilization of the mitochondrial outer membrane to release proteins from the intermembrane space into the cytosol is a pivotal event in the process of apoptosis. Specifically, the release of cytochrome C triggers the formation of the apoptosome which, in turn, results in caspase activation and other events that will commit the cell to undergo programmed cell death (Goldstein el al., 2005, Cell Death and Differentiation 12:453). The process of mitochondrial outer membrane permeabilization (MOMP) is controlled by the Bcl-2 family members. It is promoted by the multidomain pro-apoptotic proteins Bax and Bak which, upon activation, oligomerize on the outer mitochondrial membrane and form pores to ultimately release cytochrome C. This action is antagonized by the antiapoptotic members, including Bcl-2 and Bcl-xL. Compounds that are capable of inhibiting Bcl-2 or Bcl-xL, for example, in cells that depend upon these proteins for survival, can cause activation of Bax and or Bak, MOMP, release of cytochrome C and the mentioned downstream steps in the apoptotic process. This process of cytochrome C release can be measured in cells via Western blot of both mitochrondrial and cytosolic fractions, and can be used a proxy measurement of apoptosis in cells.
As a means of detecting the ability of a Bcl-xL inhibitor with low cell-permeability to cause release of cytochrome C, the cells can be treated with an agent that causes selective pore formation in the plasma membrane, but not the mitochondrial membrane. Specifically, the cholesterol/phospholipid ratio is much higher in the plasma membrane than the mitochondrial membrane. […] This agent forms insoluble complexes with cholesterol leading to the segregation of cholesterol from its normal phospholipid binding sites. This action, in turn, leads to the formation of holes about 40-50 Å wide in the lipid bilayer. Once the plasma membrane is permeabilized, cytosolic components able to pass over digitonin-formed holes can be washed out, including the cytochrome C that was released from mitochondria to cytosol in the apoptotic cells ((Campos, 2006, Cytometry A 69(6):515-523)).
To determine if Bcl-xL inhibitors were inducing cell death through apoptosis, cytochrome C release was measured in Bcl-xL dependent Molt-4 cells following treatment Specifically, 1×10^6 cells were treated for 4 h (37° C., 5% CO2) with the test compounds in half-log dilutions starting at 3.0 μM and ending at 0.01 μM. Cells were then processed as described in Chen et al., 2011, Mol. Cancer Ther. 10:2340-2350 (the Bcl-2/Bcl-X(L)/Bcl-w inhibitor, navitoclax, enhances the activity of chemotherapeutic agents in vitro and in vivo.).

[5] = in the presence of 1% HS, read-out: Bcl-xL Binding Ki (nM, 1% HS)
[6] = without HS, read-out: Bcl-xL Binding Ki

Bcl-xL, sequence (Q07817 whole entry): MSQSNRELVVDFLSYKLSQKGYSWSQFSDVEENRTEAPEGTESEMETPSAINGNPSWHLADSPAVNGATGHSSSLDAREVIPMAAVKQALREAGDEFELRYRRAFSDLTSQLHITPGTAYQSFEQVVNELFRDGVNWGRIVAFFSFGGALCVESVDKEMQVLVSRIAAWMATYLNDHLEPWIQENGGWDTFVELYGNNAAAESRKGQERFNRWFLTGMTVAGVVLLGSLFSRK

| EC50 ([1]; Homo sapiens, MOLT-4, 48 h) [nM] | EC50 [2] [nM] | Ki [3, 5] [nM] | Ki [3, 6] [nM] | EC50 ([4]; Homo sapiens, MOLT-4, 4 h) [nM] | EC50 [1] [nM] | EC50 [4] [nM] | Compound |
| --- | --- | --- | --- | --- | --- | --- | --- |
| 19 | 0.13 | 0.134 | < 0.001 |  |  |  | Cc1c(-c2ccc(N3CCc4cccc(C(=O)Nc5nc6ccccc6s5)c4C3)nc2C(=O)O)cnn1CC12CC3(C)CC(C)(C1)CC(OCCNC(CO)CO)(C3)C2 [Example 1.45, 6-[8-(1,3-benzothiazol-2-ylcarbamoyl)-3,4-dihydroisoquinolin-2 (1H)-yl]-3-{1-[(3-{2-[(1,3-dihydroxypropan-2-yl)amino]ethoxy}-5,7-dimethyltricyclo[3.3.1.1^3,7]dec-1-yl)methyl]-5-methyl-1H-pyrazol-4-yl}pyridine-2-carboxylic acid] |
| 390 |  | 0.074 | < 0.001 | < 0.5 |  |  | Cc1c(-c2ccc(-c3ccc4c(c3)N(C(=O)Nc3nc5ccccc5s3)CCC4)nc2C(=O)O)cnn1CC12CC3(C)CC(C)(C1)CC(OCCNCCS(=O)(=O)O)(C3)C2 [Example 1.24, 6-[1-(1,3-benzothiazol-2-ylcarbamoyl)-1,2,3,4-tetrahydroquinolin-7-yl]-3-{1-[(3,5-dimethyl-7-{2-[(2-sulfoethyl)amino]ethoxy}tricyclo[3.3.1.1^3,7]dec-1-yl)methyl]-5-methyl-1H-pyrazol-4-yl}pyridine-2-carboxylic acid] |
| 245 |  | 0.203 | < 0.001 | < 0.5 |  |  | Cc1c(-c2ccc(N3CCc4cccc(C(=O)Nc5nc6ccccc6s5)c4C3)nc2C(=O)O)cnn1CC12CC3(C)CC(C)(C1)CC(OCCN(CCNCCC(=O)O)CCS(=O)(=O)O)(C3)C2 [Example 1.38, 6-[8-(1,3-benzothiazol-2-ylcarbamoyl)-3,4-dihydroisoquinolin-2 (1H)-yl]-3-{1-[(3-{2-[{2-[(2-carboxyethyl)amino]ethyl}(2-sulfoethyl)amino]ethoxy}-5,7-dimethyltricyclo[3.3.1.1^3,7]dec-1-yl)methyl]-5-methyl-1H-pyrazol-4-yl}pyridine-2-carboxylic acid] |
|  |  | 1.38 | < 0.001 | 1 to 5 | 3330 | < 0.5 | Cc1c(-c2ccc(N3CCc4cccc(C(=O)Nc5nc6ccccc6s5)c4C3)nc2C(=O)O)cnn1CC12CC3(C)CC(C)(C1)CC(OCCN(CCOCCOCCN)Cc1ccc(CC4O[C@H](C(=O)O)[C@@H](O)[C@H](O)[C@H]4O)cc1)(C3)C2 (stereo partly drawn) [Example 1.18, 6-{4-[({2-[2-(2-aminoethoxy)ethoxy]ethyl}[2-({3-[(4-{6-[8-(1,3-benzothiazol-2-ylcarbamoyl)-3,4-dihydroisoquinolin-2 (1H)-yl]-2-carboxypyridin-3-yl}-5-methyl-1H-pyrazol-1-yl)methyl]-5,7-dimethyltricyclo[3.3.1.1^3,7]dec-1-yl}oxy)ethyl]amino)methyl]benzyl}-2,6-anhydro-L-gulonic acid] |
|  | 0.14 | 4.9 | < 0.01 |  |  |  | Cc1c(-c2ccc(-c3cnc4cccc(C(=O)Nc5nc6ccccc6s5)c4c3)nc2C(=O)O)cnn1CC12CC3(C)CC(C)(C1)CC(OCCNCCS(=O)(=O)O)(C3)C2 [Example 1.69, 6-[5-(1,3-benzothiazol-2-ylcarbamoyl)quinolin-3-yl]-3-{1-[(3,5-dimethyl-7-{2-[(2-sulfoethyl)amino]ethoxy}tricyclo[3.3.1.1^3,7]dec-1-yl)methyl]-5-methyl-1H-pyrazol-4-yl}pyridine-2-carboxylic acid] |
| 74 |  | 0.027 | < 0.001 | < 0.5 |  |  | Cc1c(-c2ccc(N3CCc4cccc(C(=O)Nc5nc6ccccc6s5)c4C3)nc2C(=O)O)cnn1CC12CC3(C)CC(C)(C1)CC(OCCOCCNCc1ccc(O[C@@H]4O[C@H](CO)[C@@H](O)[C@@H](O)[C@H]4O)cc1)(C3)C2 [Example 1.10, 3-[1-({3-[2-(2-{[4-(beta-D-allopyranosyloxy)benzyl]amino}ethoxy)ethoxy]-5,7-dimethyltricyclo[3.3.1.1^3,7]dec-1-yl}methyl)-5-methyl-1H-pyrazol-4-yl]-6-[8-(1,3-benzothiazol-2-ylcarbamoyl)-3,4-dihydroisoquinolin-2 (1H)-yl]pyridine-2-carboxylic acid] |
| 708 |  | 0.28 | < 0.001 | < 0.5 |  |  | Cc1c(-c2ccc(N3CCc4cccc(C(=O)Nc5nc6ccccc6s5)c4C3)nc2C(=O)O)cnn1CC12CC3(C)CC(C)(C1)CC(OCCNC(=O)[C@H](CC(=O)O)NCCC(=O)O)(C3)C2 [Example 1.32, 6-[8-(1,3-benzothiazol-2-ylcarbamoyl)-3,4-dihydroisoquinolin-2 (1H)-yl]-3-(1-{[3-(2-{[N-(2-carboxyethyl)-L-alpha-aspartyl]amino}ethoxy)-5,7-dimethyltricyclo[3.3.1.1^3,7]dec-1-yl]methyl}-5-methyl-1H-pyrazol-4-yl}pyridine-2-carboxylic acid] |
| 197 |  | 0.0294 | 0.006 | < 0.5 |  |  | Cc1c(-c2ccc(N3CCc4c(OCCNCCS(=O)(=O)O)ccc(C(=O)Nc5nc6ccccc6s5)c4C3)nc2C(=O)O)cnn1CC12CC3(C)CC(C)(C1)CC(OCCN(C)CCS(=O)(=O)O)(C3)C2 [Example 1.47, 6-[8-(1,3-benzothiazol-2-ylcarbamoyl)-5-{2-[(2-sulfoethyl)amino]ethoxy}-3,4-dihydroisoquinolin-2 (1H)-yl]-3-{1-[(3,5-dimethyl-7-{2-[methyl(2-sulfoethyl)amino]ethoxy}tricyclo[3.3.1.1^3,7]dec-1-yl)methyl]-5-methyl-1H-pyrazol-4-yl}pyridine-2-carboxylic acid] |
| 389 |  | 0.08 | < 0.001 | < 0.5 |  |  | Cc1c(-c2ccc(N3CCc4cccc(C(=O)Nc5nc6ccccc6s5)c4C3)nc2C(=O)O)cnn1CC12CC3(C)CC(C)(C1)CC(OCCNCCP(=O)(O)O)(C3)C2 [Example 1.12, 6-[8-(1,3-benzothiazol-2-ylcarbamoyl)-3,4-dihydroisoquinolin-2 (1H)-yl]-3-{1-[(3,5-dimethyl-7-{2-[(2-phosphonoethyl)amino]ethoxy}tricyclo[3.3.1.1^3,7]dec-1-yl)methyl]-5-methyl-1H-pyrazol-4-yl}pyridine-2-carboxylic acid] |
| 189 |  | 0.26 | 0.019 | 0.5 to 1 |  |  | Cc1c(-c2ccc(N3CCc4cccc(C(=O)Nc5nc6ccccc6s5)c4C3)nc2C(=O)O)cnn1CC12CC3(C)CC(C)(C1)CC(OCCNCCCS(=O)(=O)O)(C3)C2 [Example 1.5, 6-[8-(1,3-benzothiazol-2-ylcarbamoyl)-3,4-dihydroisoquinolin-2 (1H)-yl]-3-{1-[(3,5-dimethyl-7-{2-[(3-sulfopropyl)amino]ethoxy}tricyclo[3.3.1.1^3,7]dec-1-yl)methyl]-5-methyl-1H-pyrazol-4-yl}pyridine-2-carboxylic acid] |
